Reference: article PMC4826192 (Oncotarget, 2015)

Tests used:
[1] = molecular target: FGFR4 (Homo sapiens, UniProt P22455); experiment: In vitro kinase inhibition profile (biochemical); conditions: read-out: Biochemical (IC50 nmol/L)
[2] = molecular target: EPHA1 (Homo sapiens, UniProt P21709); experiment: In vitro kinase inhibition profile (biochemical); conditions: read-out: Biochemical (IC50 nmol/L)
[3] = molecular target: ARG (Homo sapiens, UniProt P42684); experiment: In vitro kinase inhibition profile (biochemical); conditions: read-out: Biochemical (IC50 nmol/L)
[4] = tested on: MPNST xenografts; experiment: MPNST mouse xenograft tumor growth; assay type: in vivo, ICR/SCID mice; conditions: MGCD516 15 mg/kg p.o., crizotinib 50 mg/kg i.p., imatinib 30 mg/kg i.p., QD 5 days a week
Procedure: […]. […] […]. Tumor size was measured twice weekly by caliper.

[5] = molecular target: ROS (Homo sapiens, UniProt P08922); experiment: In vitro kinase inhibition profile (biochemical); conditions: read-out: Biochemical (IC50 nmol/L)
[6] = molecular target: RON (Homo sapiens, UniProt Q04912); experiment: In vitro kinase inhibition profile (biochemical); conditions: read-out: Biochemical (IC50 nmol/L)
[7] = tested on: p-AKT (Ser473); experiment: Western immunoblotting of downstream effector in sarcoma cells; assay type: cell-based; conditions: western blot
Procedure: […]. Cell viability was measured using Dojindo Cell Counting Kit 8. Dose response graphs were generated as a percentage of the no drug control. Error bars represent standard error mean. Combined data from three independent experiments is shown. B. Indicated cell lines were grown to 60% confluency in serum free media overnight. […] After the drug treatments, cells were stimulated in drug free media containing 10%FBS. Media containing no FBS was used as unstimulated control. […] Representative western blots from two independent experiments are shown. ND=No Drug, Uns=Unstimulated control.
. Cell viability was measured using Dojindo Cell Counting Kit 8. Graphs were generated as a percentage of the no drug (ND) control. Error bars represent standard error mean. Combined data from at least two independent experiments is shown. Note: For Figure 4A, error bars are included; however, they are too small to be seen. C. Indicated cell lines were grown to 60% confluency in serum free media overnight. […] After the drug treatments, cells were stimulated in drug free media containing 10%FBS. […] Representative western blots from two independent experiments are shown. D. 1,000 cells were plated, in triplicate, onto 100mm dishes and treated the next day with the indicated drugs in media containing 10%FBS for 24 hours. […] Colonies were scored with ColCount software from Oxford Optronix (Abingdon, UK). […]

[8] = molecular target: ITK (Homo sapiens, UniProt Q08881); experiment: In vitro kinase inhibition profile (biochemical); conditions: read-out: Biochemical (IC50 nmol/L)
[9] = molecular target: EPHB4 (Homo sapiens, UniProt P54760); experiment: In vitro kinase inhibition profile (biochemical); conditions: read-out: Biochemical (IC50 nmol/L)
[10] = tested on: RTK phosphorylation (PDGFRα, PDGFRβ, IGF1-R, c-Met, Axl, ALK); experiment: Phospho-RTK proteome profiler array in sarcoma cells; conditions: 3 hours drug, 10% FBS stimulation 1 hour
[11] = tested on: cyclin D1, p-Rb, cleaved PARP; experiment: Western blot of cell-cycle and apoptosis markers in MPNST cells; assay type: cell-based
Procedure: Western blots were carried out as previously described.
www.impactjournals.com/oncotarget/ Oncotarget, Supplementary Materials 2015
Supplementary Figure S2: A . LS141 cells were plated in 96-well plates and treated in triplicate with indicated concentration
of drugs for 72 hours. Cell viability was measured using Dojindo Cell Counting Kit 8. Error bars represent standard error mean. Combined
data from at least two independent experiments is shown. […]
fold increase in G1 phase compared to no drug control. * = p<0.05, ** = p<0.005. Error bars represent standard error mean. Combined data
from two independent experiments is shown.
treated with MGCD516. C. MPNST cells were plated in 96-well plates and treated in triplicate with indicated concentrations of drugs for
72 hours. Cell viability was measured using Dojindo Cell Counting Kit 8. Error bars represent standard error mean. Combined data from
two independent experiments is shown. […]

[12] = molecular target: EPHB1 (Homo sapiens, UniProt P54762); experiment: In vitro kinase inhibition profile (biochemical); conditions: read-out: Biochemical (IC50 nmol/L)
[13] = molecular target: ERBB4 (Homo sapiens, UniProt Q15303); experiment: In vitro kinase inhibition profile (biochemical); conditions: read-out: Biochemical (IC50 nmol/L)
[14] = molecular target: TIE2 (Homo sapiens, UniProt Q02763); experiment: In vitro kinase inhibition profile (biochemical); conditions: read-out: Biochemical (IC50 nmol/L)
[15] = molecular target: INSR (Homo sapiens, UniProt P06213); experiment: In vitro kinase inhibition profile (biochemical); conditions: read-out: Biochemical (IC50 nmol/L)
[16] = molecular target: ZAP70 (Homo sapiens, UniProt P43403); experiment: In vitro kinase inhibition profile (biochemical); conditions: read-out: Biochemical (IC50 nmol/L)
[17] = molecular target: FGFR1 (Homo sapiens, UniProt P11362); experiment: In vitro kinase inhibition profile (biochemical); conditions: read-out: Biochemical (IC50 nmol/L)
[18] = molecular target: PDGFRα (Homo sapiens, UniProt P16234); experiment: In vitro kinase inhibition profile (biochemical); conditions: read-out: Biochemical (IC50 nmol/L)
[19] = molecular target: IGF1R (Homo sapiens, UniProt P08069); experiment: In vitro kinase inhibition profile (biochemical); conditions: read-out: Biochemical (IC50 nmol/L)
[20] = molecular target: VEGFR3 (FLT4) (Homo sapiens, UniProt P35916); experiment: In vitro kinase inhibition profile (biochemical); conditions: read-out: Biochemical (IC50 nmol/L)
[21] = molecular target: EPHA2 (Homo sapiens, UniProt P29317); experiment: In vitro kinase inhibition profile (biochemical); conditions: read-out: Biochemical (IC50 nmol/L)
[22] = molecular target: FYN (Homo sapiens, UniProt P06241); experiment: In vitro kinase inhibition profile (biochemical); conditions: read-out: Biochemical (IC50 nmol/L)
[23] = molecular target: ALK (Homo sapiens, UniProt Q9UM73); experiment: In vitro kinase inhibition profile (biochemical); conditions: read-out: Biochemical (IC50 nmol/L)
[24] = molecular target: FGFR3 (Homo sapiens, UniProt P22607); experiment: In vitro kinase inhibition profile (biochemical); conditions: read-out: Biochemical (IC50 nmol/L)
[25] = molecular target: ERBB1 (Homo sapiens, UniProt P00533); experiment: In vitro kinase inhibition profile (biochemical); conditions: read-out: Biochemical (IC50 nmol/L)
[26] = tested on: LS141 (liposarcoma) cells; experiment: Cell viability assay (Dojindo CCK-8); assay type: cell-based; conditions: LS141, 72 hours, p < 0.05
[27] = molecular target: FER (Homo sapiens, UniProt P16591); experiment: In vitro kinase inhibition profile (biochemical); conditions: read-out: Biochemical (IC50 nmol/L)

FGFR1, sequence (P11362 22-822): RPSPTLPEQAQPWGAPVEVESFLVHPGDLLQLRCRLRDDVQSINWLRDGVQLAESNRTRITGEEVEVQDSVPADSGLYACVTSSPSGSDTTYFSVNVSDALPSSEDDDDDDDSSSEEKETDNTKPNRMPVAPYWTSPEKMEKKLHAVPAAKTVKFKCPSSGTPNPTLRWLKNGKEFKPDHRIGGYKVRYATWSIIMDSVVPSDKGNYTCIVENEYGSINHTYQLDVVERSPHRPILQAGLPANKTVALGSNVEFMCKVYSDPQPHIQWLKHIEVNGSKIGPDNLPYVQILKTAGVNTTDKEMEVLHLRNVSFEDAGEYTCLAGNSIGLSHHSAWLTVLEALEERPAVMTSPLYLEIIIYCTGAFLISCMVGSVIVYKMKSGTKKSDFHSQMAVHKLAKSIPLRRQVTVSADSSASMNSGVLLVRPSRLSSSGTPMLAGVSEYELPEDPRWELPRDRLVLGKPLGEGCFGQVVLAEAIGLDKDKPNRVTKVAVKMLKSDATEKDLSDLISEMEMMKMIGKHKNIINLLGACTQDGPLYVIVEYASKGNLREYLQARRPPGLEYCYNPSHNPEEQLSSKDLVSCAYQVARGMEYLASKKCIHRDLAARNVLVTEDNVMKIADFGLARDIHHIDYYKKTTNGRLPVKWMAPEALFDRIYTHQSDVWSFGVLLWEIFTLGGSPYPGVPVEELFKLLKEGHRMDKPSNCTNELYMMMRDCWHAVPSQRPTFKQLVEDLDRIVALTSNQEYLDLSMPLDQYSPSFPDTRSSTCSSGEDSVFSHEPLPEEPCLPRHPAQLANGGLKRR
EPHB1, sequence (P54762 18-984): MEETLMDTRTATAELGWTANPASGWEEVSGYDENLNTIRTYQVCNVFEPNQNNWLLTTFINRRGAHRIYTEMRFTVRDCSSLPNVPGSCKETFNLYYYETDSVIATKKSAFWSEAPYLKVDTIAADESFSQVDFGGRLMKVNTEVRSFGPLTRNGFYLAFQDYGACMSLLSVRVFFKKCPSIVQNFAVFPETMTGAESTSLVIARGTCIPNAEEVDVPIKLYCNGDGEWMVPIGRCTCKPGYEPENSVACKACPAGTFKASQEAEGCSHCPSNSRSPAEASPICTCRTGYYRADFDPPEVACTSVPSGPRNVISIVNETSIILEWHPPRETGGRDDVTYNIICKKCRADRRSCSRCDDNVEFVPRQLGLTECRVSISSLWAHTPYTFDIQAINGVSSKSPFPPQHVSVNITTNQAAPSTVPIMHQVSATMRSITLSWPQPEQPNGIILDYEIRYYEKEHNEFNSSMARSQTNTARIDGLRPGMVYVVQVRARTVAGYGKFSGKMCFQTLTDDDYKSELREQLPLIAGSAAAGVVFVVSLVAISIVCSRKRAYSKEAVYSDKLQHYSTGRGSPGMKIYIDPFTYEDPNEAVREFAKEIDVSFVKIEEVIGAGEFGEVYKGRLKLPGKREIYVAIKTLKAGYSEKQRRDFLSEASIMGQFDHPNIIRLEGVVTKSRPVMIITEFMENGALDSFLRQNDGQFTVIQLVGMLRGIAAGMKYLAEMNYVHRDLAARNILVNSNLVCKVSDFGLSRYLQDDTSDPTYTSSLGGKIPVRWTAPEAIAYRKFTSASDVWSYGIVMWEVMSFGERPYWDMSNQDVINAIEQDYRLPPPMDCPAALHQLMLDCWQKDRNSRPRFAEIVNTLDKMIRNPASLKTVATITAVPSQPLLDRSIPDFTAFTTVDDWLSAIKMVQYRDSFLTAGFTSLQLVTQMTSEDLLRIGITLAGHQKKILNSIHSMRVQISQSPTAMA
EPHB4, sequence (P54760 16-987): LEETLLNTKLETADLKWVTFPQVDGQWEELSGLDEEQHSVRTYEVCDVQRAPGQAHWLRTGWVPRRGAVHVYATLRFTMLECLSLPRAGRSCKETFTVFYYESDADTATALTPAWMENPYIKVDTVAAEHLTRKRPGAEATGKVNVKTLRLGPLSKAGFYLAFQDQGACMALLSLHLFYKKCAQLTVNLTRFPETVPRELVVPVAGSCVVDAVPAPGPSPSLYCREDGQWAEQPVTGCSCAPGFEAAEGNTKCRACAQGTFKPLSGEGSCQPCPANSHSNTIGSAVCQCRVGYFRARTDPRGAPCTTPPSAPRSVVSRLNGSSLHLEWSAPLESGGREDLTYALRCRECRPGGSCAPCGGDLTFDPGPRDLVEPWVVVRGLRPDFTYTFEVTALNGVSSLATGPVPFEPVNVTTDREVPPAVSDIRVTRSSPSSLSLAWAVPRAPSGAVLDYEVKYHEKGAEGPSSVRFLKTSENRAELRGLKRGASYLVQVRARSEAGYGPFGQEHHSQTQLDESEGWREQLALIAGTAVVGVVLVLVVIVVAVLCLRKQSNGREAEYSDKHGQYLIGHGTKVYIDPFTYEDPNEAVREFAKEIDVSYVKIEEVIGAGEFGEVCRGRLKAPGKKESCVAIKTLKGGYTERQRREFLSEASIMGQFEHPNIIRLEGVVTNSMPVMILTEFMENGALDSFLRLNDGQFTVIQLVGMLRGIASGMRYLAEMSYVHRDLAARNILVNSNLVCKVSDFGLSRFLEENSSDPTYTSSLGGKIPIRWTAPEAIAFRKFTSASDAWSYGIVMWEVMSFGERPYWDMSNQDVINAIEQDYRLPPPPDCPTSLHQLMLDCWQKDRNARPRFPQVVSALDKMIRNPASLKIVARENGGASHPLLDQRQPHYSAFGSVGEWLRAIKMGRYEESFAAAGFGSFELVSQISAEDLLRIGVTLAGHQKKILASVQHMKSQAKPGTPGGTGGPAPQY
ZAP70, sequence (P43403 whole entry): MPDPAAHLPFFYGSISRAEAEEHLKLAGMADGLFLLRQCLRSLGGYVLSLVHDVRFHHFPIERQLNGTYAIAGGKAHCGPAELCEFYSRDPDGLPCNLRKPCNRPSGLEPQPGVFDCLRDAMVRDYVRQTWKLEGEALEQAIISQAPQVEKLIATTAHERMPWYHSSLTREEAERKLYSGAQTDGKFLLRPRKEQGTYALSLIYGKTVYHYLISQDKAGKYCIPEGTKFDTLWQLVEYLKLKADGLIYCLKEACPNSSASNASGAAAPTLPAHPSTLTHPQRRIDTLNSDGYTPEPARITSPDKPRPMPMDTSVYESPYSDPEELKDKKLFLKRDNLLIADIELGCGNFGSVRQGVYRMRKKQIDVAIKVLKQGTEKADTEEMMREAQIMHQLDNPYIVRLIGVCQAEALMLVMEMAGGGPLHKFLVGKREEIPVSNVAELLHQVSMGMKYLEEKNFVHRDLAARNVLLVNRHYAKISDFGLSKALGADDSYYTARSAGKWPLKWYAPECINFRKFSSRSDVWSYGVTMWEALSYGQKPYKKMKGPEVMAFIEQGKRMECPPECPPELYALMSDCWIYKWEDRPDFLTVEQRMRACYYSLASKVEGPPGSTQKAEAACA
ERBB1, sequence (P00533 25-1210): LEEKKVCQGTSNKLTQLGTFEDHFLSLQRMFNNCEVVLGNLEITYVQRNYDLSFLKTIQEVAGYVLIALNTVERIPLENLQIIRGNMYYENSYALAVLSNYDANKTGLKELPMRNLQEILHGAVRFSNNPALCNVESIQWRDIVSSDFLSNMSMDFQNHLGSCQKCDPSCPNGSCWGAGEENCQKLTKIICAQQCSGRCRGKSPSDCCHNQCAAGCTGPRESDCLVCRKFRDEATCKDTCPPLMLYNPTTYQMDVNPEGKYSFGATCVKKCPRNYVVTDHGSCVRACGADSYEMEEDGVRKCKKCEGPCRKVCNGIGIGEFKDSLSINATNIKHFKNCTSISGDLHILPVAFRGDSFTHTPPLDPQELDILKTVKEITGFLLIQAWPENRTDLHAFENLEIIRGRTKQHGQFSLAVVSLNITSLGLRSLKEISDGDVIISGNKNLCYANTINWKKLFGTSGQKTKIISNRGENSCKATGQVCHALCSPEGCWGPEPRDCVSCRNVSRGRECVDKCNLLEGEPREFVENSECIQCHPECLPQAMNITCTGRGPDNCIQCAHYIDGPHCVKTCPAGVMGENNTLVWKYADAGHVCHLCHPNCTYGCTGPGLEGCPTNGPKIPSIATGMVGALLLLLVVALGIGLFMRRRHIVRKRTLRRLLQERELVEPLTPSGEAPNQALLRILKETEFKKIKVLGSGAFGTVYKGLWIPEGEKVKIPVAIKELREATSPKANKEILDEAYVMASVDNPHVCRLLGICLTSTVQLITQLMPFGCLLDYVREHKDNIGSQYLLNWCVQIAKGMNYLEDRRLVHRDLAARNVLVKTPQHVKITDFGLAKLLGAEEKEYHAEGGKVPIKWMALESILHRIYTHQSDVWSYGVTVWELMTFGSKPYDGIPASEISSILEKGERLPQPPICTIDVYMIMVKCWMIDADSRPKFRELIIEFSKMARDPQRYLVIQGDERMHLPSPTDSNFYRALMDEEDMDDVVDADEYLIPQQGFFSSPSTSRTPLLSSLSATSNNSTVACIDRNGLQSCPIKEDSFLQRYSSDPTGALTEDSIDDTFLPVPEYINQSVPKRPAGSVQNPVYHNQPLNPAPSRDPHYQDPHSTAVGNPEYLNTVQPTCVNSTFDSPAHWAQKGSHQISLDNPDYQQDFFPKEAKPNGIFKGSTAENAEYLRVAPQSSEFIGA
FYN, sequence (P06241 whole entry): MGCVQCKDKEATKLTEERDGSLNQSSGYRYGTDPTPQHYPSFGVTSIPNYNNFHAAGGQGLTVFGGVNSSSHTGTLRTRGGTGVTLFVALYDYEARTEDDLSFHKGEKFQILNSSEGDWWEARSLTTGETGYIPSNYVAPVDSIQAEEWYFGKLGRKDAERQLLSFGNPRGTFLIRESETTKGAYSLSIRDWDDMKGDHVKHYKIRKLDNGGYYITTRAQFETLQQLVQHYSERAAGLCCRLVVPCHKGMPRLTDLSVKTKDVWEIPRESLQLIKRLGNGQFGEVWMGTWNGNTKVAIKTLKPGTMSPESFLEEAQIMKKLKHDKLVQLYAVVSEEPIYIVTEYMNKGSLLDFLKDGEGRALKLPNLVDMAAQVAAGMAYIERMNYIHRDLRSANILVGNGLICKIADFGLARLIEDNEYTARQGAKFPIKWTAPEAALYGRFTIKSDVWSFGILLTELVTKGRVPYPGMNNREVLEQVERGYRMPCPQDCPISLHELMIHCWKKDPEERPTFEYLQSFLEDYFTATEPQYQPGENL

COCCNCc1ccc(-c2cc3nccc(Oc4ccc(NC(=O)C5(C(=O)Nc6ccc(F)cc6)CC5)cc4F)c3s2)nc1 [MGCD516, Sitravatinib]
IC50 [1]: > 5000 nmol/L
IC50 [2]: > 10000 nmol/L
IC50 [3]: 4100 nmol/L
tumor growth [4]: significant suppression of tumor growth
IC50 [5]: 59 nmol/L
IC50 [6]: 43 nmol/L
inhibition of downstream effectors such as p-AKT (Ser473), comparison with imatinib and crizotinib ([7]; DDLS and MPNST): significantly better inhibition
down-regulation of p-AKT (Ser473) ([7]; increasing concentrations of MGCD516): significant down-regulation of p-AKT (Ser473)
IC50 [8]: > 5000 nmol/L
IC50 [9]: 12 nmol/L
down-regulation of RTK phosphorylation (phospho-RTK array) [10]: significant down-regulation of RTK phosphorylation
cleaved PARP [11]: no induction of cleaved PARP
cyclin D1 level [11]: significant down-regulation of cyclin D1
hyperphosphorylated form of retinoblastoma protein (p-Rb) [11]: significant decrease
IC50 [12]: > 10000 nmol/L
IC50 [13]: > 5000 nmol/L
IC50 [14]: 274 nmol/L
IC50 [15]: 5550 nmol/L
IC50 [16]: > 10000 nmol/L
IC50 [17]: > 5000 nmol/L
IC50 [18]: 30 nmol/L
IC50 [19]: 3980 nmol/L
IC50 [20]: 2 nmol/L
IC50 [21]: 44 nmol/L
IC50 [22]: 339 nmol/L
IC50 [23]: > 10000 nmol/L
IC50 [24]: > 5000 nmol/L
IC50 [25]: > 5000 nmol/L
anti-proliferative effect compared with carbozantinib and foretinib [26]: significantly higher anti-proliferative effect
IC50 [27]: 1590 nmol/L
